Test results as given in PMC6152724, “Secondary Sulfonamides as Effective Lactoperoxidase Inhibitors” (Molecules : A Journal of Synthetic Chemistry and Natural …, 2017).

Target: T1, LPO purified from bovine milk (Bos taurus, UniProt P80025)
T1 construct: from tissue; host or cells: fresh bovine milk
Experiment: LPO inhibition assay (ABTS oxidation by H2O2, absorbance at 412 nm; Lineweaver–Burk plots)
Type: biochemical
Settings: for IC50: from activity (%)-[inhibitor] regression graphs, ABTS substrate; for Inhibition Type: with respect to ABTS substrate, from Lineweaver–Burk plots
Procedure: LPO activities were determined by the procedure of Shindler and Bardsley with slight modification. This method is based on the oxidation of chromogenic substrate 2,2′-azino-bis(3-ethylbenzothiazoline-6-sulfonic acid) (ABTS) by hydrogen peroxide (H2O2), which results in a product which had absorbance at 412 nm.
The effects of secondary sulfonamide derivatives (4a–8h) on LPO purified from fresh bovine milk by affinity chromatography technique were previously determined. In our study, LPO activity was measured in the presence of different concentrations of secondary sulfanilamide derivatives (4a–8h). A control sample without secondary sulfonamide was taken as 100%. An activity (%)-[Secondary sulfonamide] plot was drawn. For the determination of the inhibition constant (Ki) values, three different secondary sulfonamide derivative (4a–8h) concentrations were used. Additionally, ABTS was used as a substrate at five different concentrations. Lineweaver–Burk plots (1/V-1/[ABTS]) were obtained for secondary sulfonamide; the Ki and the inhibition type were calculated from these plots. The data obtained were analysed by t-test and the results are given as Means ± SD.

[1] = LPO purified from bovine milk, Lineweaver–Burk plots, three inhibitor and five ABTS concentrations, Means ± SD
[2] = bovine milk LPO, values restated in text in nM

Row | Ki [1] [nM] | IC50 (LPO purified from bovine milk) [nM] | Inhibition Type | Structure (SMILES) | Ki [2] [nM]
1 | 38400 ± 6060 | 231000 | Non-competitive | Nc1ccc(S(=O)(=O)Nc2nccs2)cc1 [4a, Sulfathiazole, reference compound] | 
2 | 90700 ± 2520 | 92200 | Non-competitive | Nc1ccc(S(=O)(=O)Nc2ncccn2)cc1 [4b, Sulfadiazine, reference compound] | 
3 | 198000 ± 24500 | 346000 | Non-competitive | Cc1cc(C)nc(NS(=O)(=O)c2ccc(N)cc2)n1 [4c, Sulfamethazine, reference compound] | 
4 | 65000 ± 3610 | 227000 | Competitive | Nc1ccc(S(=O)(=O)Nc2ccccn2)cc1 [4d, Sulfapyridine, reference compound] | 
5 | 183000 ± 34100 | 222000 | Non-competitive | Cc1noc(NS(=O)(=O)c2ccc(N)cc2)c1C [4e, Sulfisoxazole, reference compound] | 
6 | 21200 ± 5660 | 115000 | Non-competitive | Cc1nnc(NS(=O)(=O)c2ccc(N)cc2)s1 [4f, Sulfamethizole, reference compound] | 
7 | 20500 ± 2140 | 18700 | Non-competitive | Cc1ccnc(NS(=O)(=O)c2ccc(N)cc2)n1 [4g, Sulfamerazine, reference compound] | 
8 | 35700 ± 4880 | 8480 | Competitive | Nc1ccc(S(N)(=O)=O)cc1 [4h, Sulfanilamide, reference compound] | 
9 | 6850 ± 1810 | 15100 | Non-competitive | O=C(Nc1ccc(S(=O)(=O)Nc2nccs2)cc1)c1ccc(O)cc1 [7a, N-(sulfathiazole)-p-hydroxybenzamide] | 
10 | 44 ± 22 | 40 | Noncompetitive | O=C(Nc1ccc(S(=O)(=O)Nc2ncccn2)cc1)c1ccc(O)cc1 [7b, N-(sulfadiazine)-p-hydroxybenzamide] | 
11 | 484 ± 146 | 426 | Non-competitive | Cc1cc(C)nc(NS(=O)(=O)c2ccc(NC(=O)c3ccc(O)cc3)cc2)n1 [7c, N-(sulfamethazine)-p-hydroxybenzamide] | 
12 | 1410 ± 130 | 2960 | Competitive | O=C(Nc1ccc(S(=O)(=O)Nc2ccccn2)cc1)c1ccc(O)cc1 [7d, N-(sulfapyridine)-p-hydroxybenzamide] | 
13 | 15100 ± 3900 | 10800 | Non-competitive | Cc1noc(NS(=O)(=O)c2ccc(NC(=O)c3ccc(O)cc3)cc2)c1C [7e, N-(sulfisoxazole)-p-hydroxybenzamide] | 
14 | 387 ± 150 | 799 | Competitive | Cc1nnc(NS(=O)(=O)c2ccc(NC(=O)c3ccc(O)cc3)cc2)s1 [7f, N-(sulfamethizole)-p-hydroxybenzamide] | 
15 | 3940 ± 1100 | 1760 | Non-competitive | Cc1ccnc(NS(=O)(=O)c2ccc(NC(=O)c3ccc(O)cc3)cc2)n1 [7g, N-(sulfamerazine)-p-hydroxybenzamide] | 
16 | 217 ± 99 | 285 | Non-competitive | NS(=O)(=O)c1ccc(NC(=O)c2ccc(O)cc2)cc1 [7h, N-(sulfanilamide)-p-hydroxybenzamide] | 
17 | 25 ± 10 | 14 | Competitive | O=C(Nc1ccc(S(=O)(=O)Nc2nccs2)cc1)c1cc(O)c(O)c(O)c1 [8a, N-(sulfathiazole)-3,4,5-trihydroxybenzamide] | 
18 | 1290 ± 465 | 715 | Non-competitive | O=C(Nc1ccc(S(=O)(=O)Nc2ncccn2)cc1)c1cc(O)c(O)c(O)c1 [8b, N-(sulfadiazine)-3,4,5-trihydroxybenzamide] | 
19 | 2170 ± 880 | 2530 | Competitive | Cc1cc(C)nc(NS(=O)(=O)c2ccc(NC(=O)c3cc(O)c(O)c(O)c3)cc2)n1 [8c, N-(sulfamethazine)-3,4,5-trihydroxybenzamide] | 
20 | 5850 ± 1280 | 10200 | Competitive | O=C(Nc1ccc(S(=O)(=O)Nc2ccccn2)cc1)c1cc(O)c(O)c(O)c1 [8d, N-(sulfapyridine)-3,4,5-trihydroxybenzamide] | 
21 | 1440 ± 520 | 1990 | Competitive | Cc1noc(NS(=O)(=O)c2ccc(NC(=O)c3cc(O)c(O)c(O)c3)cc2)c1C [8e, N-(sulfisoxazole)-3,4,5-trihydroxybenzamide] | 
22 | 293000 ± 62000 | 173000 | Non-competitive | Cc1nnc(NS(=O)(=O)c2ccc(NC(=O)c3cc(O)c(O)c(O)c3)cc2)s1 [8f, N-(sulfamethizole)-3,4,5-trihydroxybenzamide] | 
23 | 3870 ± 430 | 1480 | Non-competitive | Cc1ccnc(NS(=O)(=O)c2ccc(NC(=O)c3cc(O)c(O)c(O)c3)cc2)n1 [8g, N-(sulfamerazine)-3,4,5-trihydroxybenzamide] | 

Row | Structure (SMILES) | Ki [1] [nM] | IC50 (LPO purified from bovine milk) [nM] | Inhibition Type | Ki [2] [nM]
24 | CC(=O)Oc1ccc(C(=O)Nc2ccc(S(=O)(=O)Nc3nccs3)cc2)cc1 [5a, N-(sulfathiazole)-p-acetoxybenzamide] | 56100 ± 23600 | 99000 | Non-competitive | 
25 | CC(=O)Oc1ccc(C(=O)Nc2ccc(S(=O)(=O)Nc3ncccn3)cc2)cc1 [5b, N-(sulfadiazine)-p-acetoxybenzamide] | 26 ± 4 | 15 | Non-competitive | 260
26 | CC(=O)Oc1ccc(C(=O)Nc2ccc(S(=O)(=O)Nc3nc(C)cc(C)n3)cc2)cc1 [5c, N-(sulfamethazine)-p-acetoxybenzamide] | 8 ± 3 | 10 | Competitive | 80
27 | CC(=O)Oc1ccc(C(=O)Nc2ccc(S(=O)(=O)Nc3ccccn3)cc2)cc1 [5d, N-(sulfapyridine)-p-acetoxybenzamide] | 49100 ± 20000 | 10000 | Competitive | 
28 | CC(=O)Oc1ccc(C(=O)Nc2ccc(S(=O)(=O)Nc3onc(C)c3C)cc2)cc1 [5e, N-(sulfisoxazole)-p-acetoxybenzamide] | 934 ± 357 | 3030 | Competitive | 
29 | CC(=O)Oc1ccc(C(=O)Nc2ccc(S(=O)(=O)Nc3nnc(C)s3)cc2)cc1 [5f, N-(sulfamethizole)-p-acetoxybenzamide] | 324 ± 115 | 238 | Non-competitive | 
30 | CC(=O)Oc1ccc(C(=O)Nc2ccc(S(=O)(=O)Nc3nccc(C)n3)cc2)cc1 [5g, N-(sulfamerazine)-p-acetoxybenzamide] | 13400 ± 6190 | 3940 | Competitive | 
31 | CC(=O)Oc1ccc(C(=O)Nc2ccc(S(N)(=O)=O)cc2)cc1 [5h, N-(sulfanilamide)-p-acetoxybenzamide] | 2290 ± 1020 | 3050 | Non-competitive | 
32 | CC(=O)Oc1cc(C(=O)Nc2ccc(S(=O)(=O)Nc3nccs3)cc2)cc(OC(C)=O)c1OC(C)=O [6a, N-(sulfathiazole)-3,4,5-triacetoxybenzamide] | 1.1 | 0.656 | Non-competitive | 
33 | CC(=O)Oc1cc(C(=O)Nc2ccc(S(=O)(=O)Nc3ncccn3)cc2)cc(OC(C)=O)c1OC(C)=O [6b, N-(sulfadiazine)-3,4,5-triacetoxybenzamide] | 2900 ± 1130 | 13900 | Competitive | 
34 | CC(=O)Oc1cc(C(=O)Nc2ccc(S(=O)(=O)Nc3nc(C)cc(C)n3)cc2)cc(OC(C)=O)c1OC(C)=O [6c, N-(sulfamethazine)-3,4,5-triacetoxybenzamide] | 152000 ± 48700 | 139000 | Non-competitive | 
35 | CC(=O)Oc1cc(C(=O)Nc2ccc(S(=O)(=O)Nc3ccccn3)cc2)cc(OC(C)=O)c1OC(C)=O [6d, N-(sulfapyridine)-3,4,5-triacetoxybenzamide] | 1390 ± 150 | 1560 | Non-competitive | 
36 | CC(=O)Oc1cc(C(=O)Nc2ccc(S(=O)(=O)Nc3onc(C)c3C)cc2)cc(OC(C)=O)c1OC(C)=O [6e, N-(sulfisoxazole)-3,4,5-triacetoxybenzamide] | 1070 ± 20 | 2030 | Competitive | 
37 | CC(=O)Oc1cc(C(=O)Nc2ccc(S(=O)(=O)Nc3nnc(C)s3)cc2)cc(OC(C)=O)c1OC(C)=O [6f, N-(sulfamethizole)-3,4,5-triacetoxybenzamide] | 8550 ± 1450 | 6660 | Non-competitive | 
38 | CC(=O)Oc1cc(C(=O)Nc2ccc(S(=O)(=O)Nc3nccc(C)n3)cc2)cc(OC(C)=O)c1OC(C)=O [6g, N-(sulfamerazine)-3,4,5-triacetoxybenzamide] | 1490 ± 280 | 1280 | Non-competitive | 
39 | CC(=O)Oc1cc(C(=O)Nc2ccc(S(N)(=O)=O)cc2)cc(OC(C)=O)c1OC(C)=O [6h, N-(sulfanilamide)-3,4,5-triacetoxybenzamide] | 2290 ± 980 | 3050 | Non-competitive | 
40 | NS(=O)(=O)c1ccc(NC(=O)c2cc(O)c(O)c(O)c2)cc1 [8h, N-(sulfanilamide)-3,4,5-trihydroxybenzamide] | 3100 ± 578 | 1780 | Non-competitive | 
